pIC50: −log10 of the molar value.
Experiments:
[1] = target: T1, PIP4K2B (Homo sapiens, UniProt P78356); assay: Trans-FI P kinase assay PIP4K2B (PIP4KtypeIIB inhibition assay); type: biochemical; conditions: compounds listed under IC50 bin headings; 100 uM GTP; read-out: Trans-FI P kinase assays: PIP4K2B IC50
T1 construct: made in house; host or cells: E. coli
T1 sequence (P78356 1-416): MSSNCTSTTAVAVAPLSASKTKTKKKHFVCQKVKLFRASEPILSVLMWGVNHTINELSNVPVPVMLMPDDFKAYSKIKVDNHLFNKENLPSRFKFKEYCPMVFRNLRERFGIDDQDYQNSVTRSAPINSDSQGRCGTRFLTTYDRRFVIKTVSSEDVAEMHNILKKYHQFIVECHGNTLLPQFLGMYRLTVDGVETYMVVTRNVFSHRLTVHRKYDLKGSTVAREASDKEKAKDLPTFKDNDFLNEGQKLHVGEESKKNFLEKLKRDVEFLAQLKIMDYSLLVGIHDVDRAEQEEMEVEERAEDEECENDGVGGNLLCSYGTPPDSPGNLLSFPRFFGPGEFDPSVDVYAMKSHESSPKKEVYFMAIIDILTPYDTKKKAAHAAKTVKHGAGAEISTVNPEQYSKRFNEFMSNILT
How it was run: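 Transcreener FI fluorescence read-out of GDP formed by E. coli-expressed GST-PIP4K2B (5 nM) using 100 uM GTP and 80 uM PI5P with DOPE carrier lipid, pH 7.3, 2 h reaction. Compounds (up to 4.8 uM) were preincubated with enzyme 1 h at 27 C; IC50 fitted from residual activity relative to no-inhibitor control.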

[2] = target: T2, PIP4K 2A (Homo sapiens, UniProt P48426); assay: ADP-glo kinase assay PIP4K 2A; type: biochemical; design: 4 nM PIP4K2A (full length protein, SignalChem); purchased SignalChem; conditions: compounds listed under IC50 bin headings
T2 sequence (P48426 1-406): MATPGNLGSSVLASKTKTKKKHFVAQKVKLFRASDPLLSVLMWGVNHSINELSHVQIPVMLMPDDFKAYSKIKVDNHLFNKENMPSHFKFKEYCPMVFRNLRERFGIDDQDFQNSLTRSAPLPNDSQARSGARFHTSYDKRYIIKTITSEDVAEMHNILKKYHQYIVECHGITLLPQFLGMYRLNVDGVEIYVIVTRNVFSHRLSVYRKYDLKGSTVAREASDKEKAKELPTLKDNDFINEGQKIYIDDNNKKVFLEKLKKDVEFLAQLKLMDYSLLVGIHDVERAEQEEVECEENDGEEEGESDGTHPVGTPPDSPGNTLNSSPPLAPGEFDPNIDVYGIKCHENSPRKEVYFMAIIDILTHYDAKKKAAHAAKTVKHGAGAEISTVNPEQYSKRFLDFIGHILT
How it was run: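 Inhibition was calculated versus DMSO controls from ADP-Glo luminescence and fitted to IC50 over a 10-point, threefold series. Compound was first pre-incubated 15 min at room temperature with PIP4K2A (full-length; 4 nM in the enzyme/substrate mix) and PI(5)P diC8 (100 μM in that mix). The reaction then ran for 1 h after adding 60 μM ATP solution, in MOPS pH 7.2/MgCl2/Tween buffer.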

| Structure (SMILES) | pIC50 [1] | pIC50 [2] |
| --- | --- | --- |
| CC1Oc2cc(N3CCCC3=O)c(F)cc2-c2cnc(Nc3cncc(N4CCNC4=O)c3)cc21 (centres unmarked) [Example 151, 1-(5-((9-fluoro-5-methyl-8-(2-oxopyrrolidin-1-yl)-5H-chromeno[4,3-c]pyridin-3-yl)amino)pyridin-3-yl)imidazolidin-2-one] | 7.00 to 8.00 | 8.00 to 9.00 |
| CC1C[C@H]2COc3ncc(Nc4cc5c(cn4)-c4cc(F)c(N6CCCC6=O)cc4OC5C)cc3N2C1=O (stereo partly drawn) [Example 152, (6aS)-2-((9-fluoro-5-methyl-8-(2-oxopyrrolidin-1-yl)-5H-chromeno[4,3-c]pyridin-3-yl)amino)-8-methyl-6,6a,7,8-tetrahydro-9H-pyrido[2,3-b]pyrrolo[1,2-d][1,4]oxazin-9-one] | 8.00 to 9.00 | ≥ 9.00 |
| CC1Oc2cc(N3CCCC3=O)c(F)cc2-c2cnc(Nc3cnc4c(c3)N3C(=O)C(C)(C)C[C@H]3CO4)cc21 (stereo partly drawn) [Example 153, (6aS)-2-((9-fluoro-5-methyl-8-(2-oxopyrrolidin-1-yl)-5H-chromeno[4,3-c]pyridin-3-yl)amino)-8,8-dimethyl-6,6a,7,8-tetrahydro-9H-pyrido[2,3-b]pyrrolo[1,2-d][1,4]oxazin-9-one] | 8.00 to 9.00 | ≥ 9.00 |
| CC1Oc2cc(N3CCCC3=O)ccc2-c2cnc(Nc3cnc4c(c3)N3C(=O)C(C)(C)C[C@H]3CO4)cc21 (stereo partly drawn) [Example 156, (6aS)-8,8-dimethyl-2-((5-methyl-8-(2-oxopyrrolidin-1-yl)-5H-chromeno[4,3-c]pyridin-3-yl)amino)-6,6a,7,8-tetrahydro-9H-pyrido[2,3-b]pyrrolo[1,2-d][1,4]oxazin-9-one] | 8.00 to 9.00 | ≥ 9.00 |
| CC1Oc2cc(N3CCCC3=O)c(F)cc2-c2cnc(Nc3cnc4c(c3)N3C(=O)OC[C@H]3CO4)cc21 (stereo partly drawn) [Example 159, (3aR)-8-((9-fluoro-5-methyl-8-(2-oxopyrrolidin-1-yl)-5H-chromeno[4,3-c]pyridin-3-yl)amino)-3a,4-dihydro-1H,3H-oxazolo[3,4-d]pyrido[2,3-b][1,4]oxazin-1-one] | 8.00 to 9.00 | ≥ 9.00 |
| O=C1CCCN1c1ccc2c(c1)OCc1cc(Nc3cncc(N4CCNC4=O)c3)ncc1-2 [Example 160, 1-(5-((8-(2-oxopyrrolidin-1-yl)-5H-chromeno[4,3-c]pyridin-3-yl)amino)pyridin-3-yl)imidazolidin-2-one] | 7.00 to 8.00 | 8.00 to 9.00 |

Now from value to molecule:

| pIC50 [1] | pIC50 [2] | Structure (SMILES) |
| --- | --- | --- |
| 8.00 to 9.00 | ≥ 9.00 | CC1Oc2cc(N3CCCC3=O)c(F)cc2-c2cnc(Nc3cnc4c(c3)N3C(=O)C5(CC5)C[C@H]3CO4)cc21 (some centres unmarked) [Example 154, (6a′S)-2′-((9-fluoro-5-methyl-8-(2-oxopyrrolidin-1-yl)-5H-chromeno[4,3-c]pyridin-3-yl)amino)-6a′,7′-dihydro-6′H,9′H-spiro[cyclopropane-1,8′-pyrido[2,3-b]pyrrolo[1,2-d][1,4]oxazin]-9′-one] |
| 8.00 to 9.00 | ≥ 9.00 | CC1C[C@H]2COc3ncc(Nc4cc5c(cn4)-c4ccc(N6CCCC6=O)cc4OC5C)cc3N2C1=O (stereo partly drawn) [Example 155, (6aS)-8-methyl-2-((5-methyl-8-(2-oxopyrrolidin-1-yl)-5H-chromeno[4,3-c]pyridin-3-yl)amino)-6,6a,7,8-tetrahydro-9H-pyrido[2,3-b]pyrrolo[1,2-d][1,4]oxazin-9-one] |
| 8.00 to 9.00 | ≥ 9.00 | CC1Oc2cc(N3CCCC3=O)ccc2-c2cnc(Nc3cnc4c(c3)N3C(=O)C5(CC5)C[C@H]3CO4)cc21 (some centres unmarked) [Example 157, (6a′S)-2′-((5-methyl-8-(2-oxopyrrolidin-1-yl)-5H-chromeno[4,3-c]pyridin-3-yl)amino)-6a′,7′-dihydro-6′H,9′H-spiro[cyclopropane-1,8′-pyrido[2,3-b]pyrrolo[1,2-d][1,4]oxazin]-9′-one] |
| 8.00 to 9.00 | ≥ 9.00 | CC1Oc2cc(N3CCCC3=O)ccc2-c2cnc(Nc3cnc4c(c3)N3C(=O)OC[C@H]3CO4)cc21 (stereo partly drawn) [Example 158, (3aR)-8-((5-methyl-8-(2-oxopyrrolidin-1-yl)-5H-chromeno[4,3-c]pyridin-3-yl)amino)-3a,4-dihydro-1H,3H-oxazolo[3,4-d]pyrido[2,3-b][1,4]oxazin-1-one] |
